Laboratory results taken from patent publication US6358885B1, “Substituted phenylheterocyclic herbicides” (Mississippi State University, priority 1992, dated 2002).

Columns and labels:
umbrella sedge = assay: Test C flood test plant response rating 0 to 100; type: in vivo, Cyperus difformis; details: for Plant response rating Umbrella sedge: flood test species listed under POSTEMERGENCE, 0 to 100 scale
Excerpt: (§1) The compounds evaluated in this test were formulated in a non-phytoxic solvent and applied to the soil surface before plant seedlings emerged (preemergence application), to water that covered the soil surface (flood application), and to plants that were in the one-to-four leaf stage (postemergence application). A sandy loam soil was used for the preemergence and postemergence tests, while a silt loam soil was used in the flood test. Water depth was approximately 2.5 cm for the flood test and was maintained at this level for the duration of the test. Plant species in the preemergence and postemergence tests consisted of barley (Hordeum vulgare), bedstraw (Galium aparine), blackgrass (Alopecurus myosuroides), chickweed (Stellaria media), corn (Zea mays), cotton (Gossypium hirsutum), crabgrass (Digitaria sanguinalis), downy brome (Bromus tectorum), giant foxtail (Setaria faberii), lambsquarters (Chenopodium album), morningglory (Ipomoea hederacea), pigweed ([…]), rape (Brassica napus), ryegrass (Lolium multiflorum), sorghum (Sorghum bicolor), soybean (Glycine max), speedwell (Veronica persica), sugar beet (Beta vulgaris), velvetleaf (Abutilon theophrasti), wheat (Triticum aestivum), wild buckwheat (Polygonum convolvulus), and wild oat (Avena fatua). All plant species were planted one day before application of the compound for the preemergence portion-of this test. Plantings of these species were adjusted to produce plants of appropriate size for the post-emergence portion of the test. […] All plant species were grown using normal greenhouse practices. Visual evaluations of injury expressed on treated plants, when compared to untreated controls, were recorded approximately fourteen to twenty one days after application of the test compound. […] A dash (-) response means no test result.

chickweed = assay: Test B preemergence/postemergence greenhouse plant response rating 0 to 10; type: in vivo, Stellaria media; details: 0 to 10 scale
Outline: (§2)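 Postemergence treatment of plants two to eighteen cm tall ran alongside preemergence treatment of planted seed, each using compound in a non-phytotoxic solvent.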

crabgrass = assay: Test C preemergence/postemergence greenhouse plant response rating 0 to 100; type: in vivo, Digitaria sanguinalis; details: POSTEMERGENCE; for Plant response rating, Crabgrass: 0 to 100 scale
Excerpt: as §1

wild oat = assay: as above; type: in vivo, Avena fatua; details: POSTEMERGENCE; for Plant response rating, Wild oat: 0 to 100 scale
Excerpt: as §1

ryegrass = assay: as above; type: in vivo, Lolium multiflorum; details: POSTEMERGENCE; for Plant response rating Ryegrass: 0 to 100 scale
Excerpt: as §1

corn = assay: as above; type: in vivo, Zea mays; details: POSTEMERGENCE; for Plant response rating, Corn: 0 to 100 scale
Excerpt: as §1

bedstraw = assay: as above; type: in vivo, Galium aparine; details: POSTEMERGENCE; for Plant response rating, Bedstraw: 0 to 100 scale
Excerpt: as §1

rape = assay: Test B preemergence/postemergence greenhouse plant response rating 0 to 10; type: in vivo, Brassica napus; details: 0 to 10 scale
Outline: as §2

wild buckwheat = assay: as above; type: in vivo, Polygonum convolvulus; details: 0 to 10 scale
Outline: as §2

sugar beet = assay: Test C preemergence/postemergence greenhouse plant response rating 0 to 100; type: in vivo, Beta vulgaris; details: POSTEMERGENCE; for Plant response rating, Sugar beet: 0 to 100 scale
Excerpt: as §1

barnyardgrass = assay: Test B preemergence/postemergence greenhouse plant response rating 0 to 10; type: in vivo, Echinochloa crus-galli; details: 0 to 10 scale
Outline: as §2

downy brome = assay: Test C preemergence/postemergence greenhouse plant response rating 0 to 100; type: in vivo, Bromus tectorum; details: POSTEMERGENCE; for Plant response rating Downy Brome: 0 to 100 scale
Excerpt: as §1

[1] = Rate 16 g/ha, under POSTEMERGENCE head (flood test species)

C=CCN1C(=O)COc2cc(F)c(-c3nn4c(c3Br)CCCC4)cc21 [Compound 41]
Plant response rating (0 to 100), Umbrella sedge (umbrella sedge; [1]): 60 | Plant response rating (0 to 100), Umbrella sedge (umbrella sedge; Rate 31 g/ha, under POSTEMERGENCE head (flood test species)): 60 | Plant response rating Umbrella sedge (umbrella sedge; 62 g/ha): 80 | Plant response rating Umbrella sedge (umbrella sedge; 125 g/ha): 90 | Plant response rating, Chickweed (chickweed; POSTEMERGENCE, Rate 50 g/ha): 10 | Plant response rating, Chickweed (chickweed; POSTEMERGENCE, Rate 200 g/ha): 10 | Plant response rating, Chickweed (chickweed; PREEMERGENCE, Rate 50 g/ha): 10 | Plant response rating, Chickweed (chickweed; Rate 200 g/ha, PREEMERGENCE): 10 | Plant response rating, Crabgrass (crabgrass; 62 g/ha): 20 | Plant response rating, Crabgrass (crabgrass; 125 g/ha): 30 | Plant response rating (0 to 100), Crabgrass (crabgrass; Rate 16 g/ha): 10 | Plant response rating (0 to 100), Crabgrass (crabgrass; Rate 31 g/ha): 10 | Plant response rating, Wild oat (wild oat; 62 g/ha): 40 | Plant response rating, Wild oat (wild oat; 125 g/ha): 50 | Plant response rating (0 to 100), Wild oat (wild oat; Rate 16 g/ha): 20 | Plant response rating (0 to 100), Wild oat (wild oat; Rate 31 g/ha): 30 | Plant response rating Ryegrass (ryegrass; 62 g/ha): 30 | Plant response rating Ryegrass (ryegrass; 125 g/ha): 40 | Plant response rating (0 to 100), Ryegrass (ryegrass; Rate 16 g/ha): 10 | Plant response rating (0 to 100), Ryegrass (ryegrass; Rate 31 g/ha): 20 | Plant response rating, Corn (corn; 62 g/ha): 40 | Plant response rating, Corn (corn; 125 g/ha): 50 | Plant response rating (0 to 100), Corn (corn; Rate 16 g/ha): 40 | Plant response rating (0 to 100), Corn (corn; Rate 31 g/ha): 40 | Plant response rating, Bedstraw (bedstraw; 62 g/ha): 80 | Plant response rating, Bedstraw (bedstraw; 125 g/ha): 90 | Plant response rating (0 to 100), Bedstraw (bedstraw; Rate 16 g/ha): 70 | Plant response rating (0 to 100), Bedstraw (bedstraw; Rate 31 g/ha): 70 | Plant response rating, Rape (rape; POSTEMERGENCE, Rate 50 g/ha): 10 | Plant response rating, Rape (rape; PREEMERGENCE, Rate 50 g/ha): 10 | Plant response rating, Rape (rape; Rate 200 g/ha, POSTEMERGENCE): 10 | Plant response rating, Rape (rape; Rate 200 g/ha, PREEMERGENCE): 10 | Plant response rating, Wild buckwheat (wild buckwheat; POSTEMERGENCE, Rate 50 g/ha): 10 | Plant response rating, Wild buckwheat (wild buckwheat; PREEMERGENCE, Rate 50 g/ha): 10 | Plant response rating, Wild buckwheat (wild buckwheat; Rate 200 g/ha, POSTEMERGENCE): 10 | Plant response rating, Wild buckwheat (wild buckwheat; Rate 200 g/ha, PREEMERGENCE): 10 | Plant response rating, Sugar beet (sugar beet; 62 g/ha): 100 | Plant response rating, Sugar beet (sugar beet; 125 g/ha): 100 | Plant response rating (0 to 100), Sugar beet (sugar beet; Rate 16 g/ha): 100 | Plant response rating (0 to 100), Sugar beet (sugar beet; Rate 31 g/ha): 100 | Plant response rating, Barnyardgrass (barnyardgrass; POSTEMERGENCE, Rate 50 g/ha): 3 | Plant response rating, Barnyardgrass (barnyardgrass; POSTEMERGENCE, Rate 200 g/ha): 6 | Plant response rating, Barnyardgrass (barnyardgrass; PREEMERGENCE, Rate 50 g/ha): 4 | Plant response rating, Barnyardgrass (barnyardgrass; Rate 200 g/ha, PREEMERGENCE): 6 | Plant response rating Downy Brome (downy brome; 62 g/ha): 50 | Plant response rating Downy Brome (downy brome; 125 g/ha): 60 | Plant response rating (0 to 100), Downy Brome (downy brome; Rate 16 g/ha): 30 | Plant response rating (0 to 100), Downy Brome (downy brome; Rate 31 g/ha): 40

C#CC(C)N1C(=O)COc2cc(F)c(-c3nn4c(c3Cl)CCCC4)cc21 (centres unmarked) [Compound 50]
Plant response rating (0 to 100), Umbrella sedge (umbrella sedge; POSTEMERGENCE section, flood test, Rate 4 g/ha): 0 | Plant response rating (0 to 100), Umbrella sedge (umbrella sedge; [1]): 0 | Plant response rating Umbrella sedge (umbrella sedge; 62 g/ha): 75 | Plant response rating Umbrella sedge (umbrella sedge; 250 g/ha): 95 | Plant response rating, Chickweed (chickweed; POSTEMERGENCE, Rate 10 g/ha): 9 | Plant response rating, Chickweed (chickweed; POSTEMERGENCE, Rate 50 g/ha): 10 | Plant response rating, Chickweed (chickweed; PREEMERGENCE, Rate 10 g/ha): 0 | Plant response rating, Chickweed (chickweed; PREEMERGENCE, Rate 50 g/ha): 10 | Plant response rating, Crabgrass (crabgrass; 62 g/ha): 40 | Plant response rating, Crabgrass (crabgrass; 250 g/ha): 50 | Plant response rating (0 to 100), Crabgrass (crabgrass; Rate 1 g/ha): 10 | Plant response rating (0 to 100), Crabgrass (crabgrass; Rate 4 g/ha): 20 | Plant response rating (0 to 100), Crabgrass (crabgrass; Rate 16 g/ha): 20 | Plant response rating, Wild oat (wild oat; 62 g/ha): 30 | Plant response rating, Wild oat (wild oat; 250 g/ha): 50 | Plant response rating (0 to 100), Wild oat (wild oat; Rate 1 g/ha): 10 | Plant response rating (0 to 100), Wild oat (wild oat; Rate 4 g/ha): 20 | Plant response rating (0 to 100), Wild oat (wild oat; Rate 16 g/ha): 20 | Plant response rating Ryegrass (ryegrass; 62 g/ha): 40 | Plant response rating Ryegrass (ryegrass; 250 g/ha): 50 | Plant response rating (0 to 100), Ryegrass (ryegrass; Rate 1 g/ha): 0 | Plant response rating (0 to 100), Ryegrass (ryegrass; Rate 4 g/ha): 20 | Plant response rating (0 to 100), Ryegrass (ryegrass; Rate 16 g/ha): 30 | Plant response rating, Corn (corn; 62 g/ha): 50 | Plant response rating, Corn (corn; 250 g/ha): 60 | Plant response rating (0 to 100), Corn (corn; Rate 1 g/ha): 20 | Plant response rating (0 to 100), Corn (corn; Rate 4 g/ha): 30 | Plant response rating (0 to 100), Corn (corn; Rate 16 g/ha): 40 | Plant response rating, Bedstraw (bedstraw; 62 g/ha): 100 | Plant response rating, Bedstraw (bedstraw; 250 g/ha): 100 | Plant response rating (0 to 100), Bedstraw (bedstraw; Rate 1 g/ha): 10 | Plant response rating (0 to 100), Bedstraw (bedstraw; Rate 4 g/ha): 20 | Plant response rating (0 to 100), Bedstraw (bedstraw; Rate 16 g/ha): 60 | Plant response rating, Rape (rape; POSTEMERGENCE, Rate 10 g/ha): 9 | Plant response rating, Rape (rape; POSTEMERGENCE, Rate 50 g/ha): 10 | Plant response rating, Rape (rape; PREEMERGENCE, Rate 50 g/ha): 8 | Plant response rating, Wild buckwheat (wild buckwheat; POSTEMERGENCE, Rate 10 g/ha): 10 | Plant response rating, Wild buckwheat (wild buckwheat; POSTEMERGENCE, Rate 50 g/ha): 10 | Plant response rating, Wild buckwheat (wild buckwheat; PREEMERGENCE, Rate 50 g/ha): 7 | Plant response rating, Sugar beet (sugar beet; 62 g/ha): 100 | Plant response rating, Sugar beet (sugar beet; 250 g/ha): 100 | Plant response rating (0 to 100), Sugar beet (sugar beet; Rate 1 g/ha): 20 | Plant response rating (0 to 100), Sugar beet (sugar beet; Rate 4 g/ha): 100 | Plant response rating (0 to 100), Sugar beet (sugar beet; Rate 16 g/ha): 100 | Plant response rating, Barnyardgrass (barnyardgrass; POSTEMERGENCE, Rate 10 g/ha): 3 | Plant response rating, Barnyardgrass (barnyardgrass; POSTEMERGENCE, Rate 50 g/ha): 4 | Plant response rating, Barnyardgrass (barnyardgrass; PREEMERGENCE, Rate 10 g/ha): 0 | Plant response rating, Barnyardgrass (barnyardgrass; PREEMERGENCE, Rate 50 g/ha): 0 | Plant response rating Downy Brome (downy brome; 62 g/ha): 50 | Plant response rating Downy Brome (downy brome; 250 g/ha): 60 | Plant response rating (0 to 100), Downy Brome (downy brome; Rate 1 g/ha): 0 | Plant response rating (0 to 100), Downy Brome (downy brome; Rate 4 g/ha): 30 | Plant response rating (0 to 100), Downy Brome (downy brome; Rate 16 g/ha): 40
